{"source": "patent US20250057826A1", "about": "“WEEKLY REGIMEN FOR HIV” (Gilead Sciences, Inc., priority 2023, published 2025)", "key": {"[1]": {"experiment": "2-compartment LEN population pharmacokinetic (PopPK) model from pooled clinical PK data (IV/oral/SC LEN)", "type": "in vivo, human", "settings": "column HTE", "source_text": "PK data were pooled from several clinical studies in healthy participants and people with HIV-1 who received intravenous (IV)/oral/SC LEN and a 2-compartment LEN population pharmacokinetic (PopPK) model with first-order absorption and linear elimination was built to simulate various weekly dosing regimens (loading+maintenance doses) that can achieve efficacious LEN concentrations rapidly and be maintained through the dosing interval. Various scenarios including 1-3 weeks of missed oral dosing were simulated to evaluate the forgiveness window; these simulations were performed with the PopPK model incorporating variability and covariate effects. The model pharmacokinetic parameters for lenacapavir are provided in Table 1 where CL=clearance; Fpo=oral bioavailability; Fsc=SC bioavailability; GI=gastrointestinal; HTE=heavily treatment experienced; IIV=interindividual variability; Ka=absorption rate constant; Kdir=direct absorption rate constant; Ktr=transit absorption rate constant; PK=pharmacokinetic; Q=intercompartmental CL; Vc=volume of central compartment; Vp=volume of peripheral compartment."}, "[2]": {"experiment": "pharmacokinetics following single-dose administration of oral LEN 50-1800 mg", "type": "in vivo", "settings": "single-dose oral LEN 50-1800 mg"}, "HIV-1": {"tested_on": "HIV-1", "experiment": "virologic suppression in Phase 2/3 clinical studies", "type": "in vivo, human", "settings": "at mean trough concentration of 15.5 ng/mL (IQ4)"}, "MT-4 cells": {"tested_on": "MT-4 cells", "experiment": "in vitro protein-adjusted 95% effective concentration derived from MT-4 cells (inhibitory quotient 4)", "type": "cell-based", "settings": "4-fold greater than in vitro protein-adjusted 95% effective concentration from MT-4 cells"}}, "data": [{"smiles": "CC(C)(C#Cc1ccc(-c2ccc(Cl)c3c(NS(C)(=O)=O)nn(CC(F)(F)F)c23)c([C@H](Cc2cc(F)cc(F)c2)NC(=O)Cn2nc(C(F)(F)F)c3c2C(F)(F)[C@@H]2C[C@H]32)n1)S(C)(=O)=O", "note": "[lenacapavir, N—((S)-1-(3-(4-chloro-3-(methylsulfonamido)-1-(2,2,2-trifluoroethyl)-1H-indazol-7-yl)-6-(3-methyl-3-(methylsulfonyl)but-1-yn-1-yl)pyridin-2-yl)-2-(3,5-difluorophenyl)ethyl)-2-((3bS,4aR)-5,5-difluoro-3-(trifluoromethyl)-3b,4,4a,5-tetrahydro-1H-cyclopropa[3,4]cyclopenta[1,2-c]pyrazol-1-yl)acetamide]", "values": [{"measurement": "θ11: dose effect on Fpo", "setting": "[1]; PopPK covariate effect", "result": "−0.414"}, {"measurement": "θ16: HV effect on Vp", "setting": "[1]; PopPK covariate effect", "result": 1.35}, {"measurement": "θ19: pharmacoenhancer/booster effect on Fpo", "setting": "[1]; PopPK covariate effect", "result": 0.534}, {"measurement": "θ20: SC 150 mg/mL effect on Vp", "setting": "[1]; PopPK covariate effect", "result": "−0.795"}, {"measurement": "θ21: SC 150 mg/mL effect on Ktr", "setting": "[1]; PopPK covariate effect", "result": 0.433}, {"measurement": "θ10: Fsc relative to IV", "setting": "[1]; PopPK model parameter, SC bioavailability", "result": 1.02}, {"measurement": "θ6: SC Ktr", "setting": "[1]; PopPK model parameter, SC", "result": 0.00202, "unit": "h⁻¹"}, {"measurement": "θ7: SC Kdir", "setting": "[1]; PopPK model parameter, SC", "result": 0.0038, "unit": "h⁻¹"}, {"measurement": "θ8: SC fraction for direct absorption", "setting": "[1]; PopPK model parameter, SC", "result": 0.421}, {"measurement": "θ2: Vc", "setting": "[1]; PopPK model parameter", "result": 67.9, "unit": "L"}, {"measurement": "θ4: Vp", "setting": "[1]; PopPK model parameter", "result": 908, "unit": "L"}, {"measurement": "θ5: Q", "setting": "[1]; PopPK model parameter", "result": 41.2, "unit": "L/h"}, {"measurement": "θ9: Fpo relative to IV", "setting": "[1]; PopPK model parameter, oral bioavailability", "result": 0.0627}, {"measurement": "θ3: PO Ka", "setting": "[1]; PopPK model parameter, oral", "result": 0.0286, "unit": "h⁻¹"}, {"measurement": "σ1: residual proportion variability", "setting": "[1]; PopPK residual error", "result": 27.3, "unit": "% CV"}, {"measurement": "σ2: residual additive", "setting": "[1]; PopPK residual error", "result": 0.05, "unit": "ng/mL"}, {"measurement": "θ15: weight effect on Vc and Vp", "setting": "[1]; fixed allometric exponent", "result": 1}, {"measurement": "clearance", "setting": "[1]; human, plasma, other: pooled intravenous, oral and subcutaneous, PopPK model parameter, read-out: θ1: CL (converted)", "result": 60.3, "unit": "mL/min"}, {"measurement": "ω11: IIV on CL", "setting": "[1]; interindividual variability", "result": 43.2, "unit": "% CV"}, {"measurement": "ω22: IIV on Vc", "setting": "[1]; interindividual variability", "result": 0, "unit": "% CV"}, {"measurement": "ω33: IIV on Vp", "setting": "[1]; interindividual variability", "result": 85.4, "unit": "% CV"}, {"measurement": "ω44: IIV on Ktr", "setting": "[1]; interindividual variability", "result": 32.4, "unit": "% CV"}, {"measurement": "ω55: IIV on Ka", "setting": "[1]; interindividual variability", "result": 78.4, "unit": "% CV"}, {"measurement": "ω66: IIV on Kdir", "setting": "[1]; interindividual variability", "result": 0, "unit": "% CV"}, {"measurement": "ω77: IIV on Fsc", "setting": "[1]; interindividual variability", "result": 38.9, "unit": "% CV"}, {"measurement": "half-life", "setting": "[2]; human, plasma", "result": "10 to 13", "unit": "days"}, {"measurement": "oral LEN exposure increase with dose", "setting": "[2]", "result": "less than dose proportionally"}, {"measurement": "virologic suppression", "setting": "HIV-1", "result": "high rates of virologic suppression"}, {"measurement": "inhibitory quotient 4 (IQ4) mean trough concentration", "setting": "MT-4 cells", "result": 15.5, "unit": "ng/mL"}]}]}
